{"source": "patent US20220062299A1", "about": "“USE OF GLUCOCORTICOID STEROIDS IN PREVENTING AND TREATING CONDITIONS OF MUSCLE WASTING, AGING AND METABOLIC DISORDER” (NORTHWESTERN UNIVERSITY, priority 2018, published 2022)", "system": "mdx mice", "assay": "Morbidity, muscle mass, muscle function, plethysmography, echocardiography, mdx mice, 40 weeks", "format": "in vivo, mouse", "conditions": "weekly prednisone", "experimental": "Histology. Excised tissues (muscles, omental fat, heart) were placed in 10% formaldehyde (Cat #245-684; Fisher Scientific, Waltham, Mass.) for histologic processing. Seven μm sections from the center of paraffin-embedded muscles were stained with hematoxylin and eosin (H&E; cat #12013B, 1070C; Newcomer Supply, Middleton, Wis.) and Masson's trichrome (Cat #HT-15; Sigma-Aldrich; St. Louis, Mo.). Myofiber/adipocyte CSA quantitation was conducted on 400 myofibers/adipocytes per tissue per mouse. Imaging was performed using a Zeiss Axio Observer A1 microscope, using 10× and 20× (short-range) objectives. Brightfield pictures were acquired via Gryphax software (version 1.0.6.598; Jenoptik, Jena, Germany). Area quantitation was performed by means of ImageJ (Schneider et al., 2012). Sample processing, imaging and CSA quantitation were conducted blinded to treatment groups.\nMuscle function, whole-body plethysmography, echocardiography. Forelimb grip strength was monitored using a meter (Cat #1027SM; Columbus Instruments, Columbus, Ohio) blinded to treatment groups. Animals performed ten pulls with 5 seconds rest on a flat surface between pulls. Immediately before sacrifice, in situ tetanic force from tibialis anterior muscle was measured using a Whole Mouse Test System (Cat #1300A; Aurora Scientific, Aurora, ON, Canada) with a 1N dual-action lever arm force transducer (3000-LR, Aurora Scientific, Aurora, ON, Canada) in anesthetized animals (0.8 I/min of 1.5% isoflurane in 100% O2). […] Time of contraction was assessed as time to max tetanic value within the 0.0-0.5 sec range of each tetanic contraction, while time of relaxation was assessed as time to 90% min tetanic value within the 0.5-0.8 sec range of every tetanus. […] Data was recorded for a total of 15 minutes broken into 3 consecutive 5-minute periods. […] Cardiac function was assessed by echocardiography, which was conducted under anesthesia (0.8 L/min of 1.5% vaporized isoflurane in 100% O2) on mice between 2 and 5 days before sacrifice. […]"}
{"smiles": "C[C@]12C=CC(=O)C=C1CC[C@@H]1[C@@H]2C(=O)C[C@@]2(C)[C@H]1CC[C@]2(O)C(=O)CO", "note": "[prednisone, Prednisone]", "values": [{"measurement": "morbidity", "setting": "mdx male mice, 40 weeks from 6 weeks of age", "result": "improved"}, {"measurement": "muscle mass and force", "setting": "mdx mice, 40 weeks", "result": "increased"}, {"measurement": "performance of limb muscles, respiratory muscles, and heart", "setting": "mdx mice, 40 weeks", "result": "improved"}]}
